Consider eleven compounds from patent publication US20250064941A1, “SIGLEC LIGANDS, CONJUGATES, AND METHODS OF USE THEREOF” (Osprey Biopharmaceuticals, Inc., priority 2023, published 2025).

Structures are written as SMILES.

The target of experiment [1] is T1, human Siglec-2/CD22 protein (Homo sapiens, UniProt P20273).
T1 construct: purchased Acro Biosystems SI2-H82E3
T1 sequence (P20273 20-847): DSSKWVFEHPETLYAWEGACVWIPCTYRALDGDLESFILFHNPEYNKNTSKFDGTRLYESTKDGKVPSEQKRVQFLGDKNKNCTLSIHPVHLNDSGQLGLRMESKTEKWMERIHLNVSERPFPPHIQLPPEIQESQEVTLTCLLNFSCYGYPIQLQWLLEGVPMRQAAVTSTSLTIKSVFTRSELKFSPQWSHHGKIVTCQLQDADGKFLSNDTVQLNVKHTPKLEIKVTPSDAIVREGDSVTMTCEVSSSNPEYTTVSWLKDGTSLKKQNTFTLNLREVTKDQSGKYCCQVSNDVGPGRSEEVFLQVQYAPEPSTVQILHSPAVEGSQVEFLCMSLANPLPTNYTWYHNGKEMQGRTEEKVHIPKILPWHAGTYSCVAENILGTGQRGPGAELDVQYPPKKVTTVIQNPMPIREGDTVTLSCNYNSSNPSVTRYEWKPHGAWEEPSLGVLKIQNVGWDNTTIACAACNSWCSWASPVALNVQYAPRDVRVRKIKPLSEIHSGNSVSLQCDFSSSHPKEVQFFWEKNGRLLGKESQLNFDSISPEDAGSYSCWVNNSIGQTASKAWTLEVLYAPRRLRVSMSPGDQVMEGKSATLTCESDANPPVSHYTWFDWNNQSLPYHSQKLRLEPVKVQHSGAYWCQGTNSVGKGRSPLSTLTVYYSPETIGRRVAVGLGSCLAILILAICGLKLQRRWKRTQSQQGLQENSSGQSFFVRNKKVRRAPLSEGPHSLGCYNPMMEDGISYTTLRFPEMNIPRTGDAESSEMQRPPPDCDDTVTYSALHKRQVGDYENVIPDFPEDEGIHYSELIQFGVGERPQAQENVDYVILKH
Nature of the experiment: SPR binding affinity to human CD22. The settings on record: steady-state analysis. Put shortly: (§1)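 Using a Biacore 8K, compounds were tested against biotinylated CD22 captured after sialidase treatment. The running buffer held 1% DMSO, corrected with a 0.5–2% DMSO series. Affinity was derived by steady-state analysis.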
(SPR reads the build-up and loss of mass on a sensor chip optically.)

The target of experiment [2] is T2, mouse Siglec-2-Fc-Avi (CD22) (Mus musculus, UniProt P35329).
T2 construct: made in house
T2 sequence (P35329 22-708 limits assumed): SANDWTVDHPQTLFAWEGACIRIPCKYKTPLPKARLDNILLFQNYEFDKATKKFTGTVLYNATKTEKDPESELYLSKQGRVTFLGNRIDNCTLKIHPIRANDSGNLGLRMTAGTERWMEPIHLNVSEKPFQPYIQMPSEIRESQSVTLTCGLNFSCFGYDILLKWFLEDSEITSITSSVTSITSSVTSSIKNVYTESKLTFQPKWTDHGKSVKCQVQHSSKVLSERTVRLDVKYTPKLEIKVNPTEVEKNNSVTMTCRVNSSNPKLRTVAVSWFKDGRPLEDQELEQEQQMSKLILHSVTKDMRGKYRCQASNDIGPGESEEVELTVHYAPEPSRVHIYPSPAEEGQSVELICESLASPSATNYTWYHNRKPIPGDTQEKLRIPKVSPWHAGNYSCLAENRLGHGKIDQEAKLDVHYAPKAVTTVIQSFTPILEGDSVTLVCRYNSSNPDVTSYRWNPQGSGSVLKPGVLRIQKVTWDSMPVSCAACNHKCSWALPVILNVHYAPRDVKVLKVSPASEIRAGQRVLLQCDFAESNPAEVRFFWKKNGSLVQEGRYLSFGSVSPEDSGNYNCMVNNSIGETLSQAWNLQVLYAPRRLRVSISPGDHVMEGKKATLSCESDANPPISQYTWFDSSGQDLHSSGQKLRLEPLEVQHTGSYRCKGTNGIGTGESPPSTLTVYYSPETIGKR
Nature of the experiment: SPR binding affinity to mouse CD22. The settings on record: steady-state analysis. An outline of the steps:
as §1

The target of experiment [3] is cynomolgus Siglec-2/CD22 (Macaca fascicularis, UniProt A0A2K5WCZ6). Put plainly: biochemical. The format is binding. The settings on record: SPR, steady-state analysis; read-out: Affinity cyno CD22. Put shortly: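 SPR with desialylated (SialoExo, 4 h, 37° C.) cynomolgus CD22 amine-coupled to a CM5 chip. Running buffer 10 mM HEPES, 150 mM NaCl, 0.05% Tween-20, pH 7.5, 1% DMSO, with solvent correction; 120 s dissociation. Affinities from steady-state analysis.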
Chain of cynomolgus Siglec-2/CD22 (A0A2K5WCZ6 entry or part of it): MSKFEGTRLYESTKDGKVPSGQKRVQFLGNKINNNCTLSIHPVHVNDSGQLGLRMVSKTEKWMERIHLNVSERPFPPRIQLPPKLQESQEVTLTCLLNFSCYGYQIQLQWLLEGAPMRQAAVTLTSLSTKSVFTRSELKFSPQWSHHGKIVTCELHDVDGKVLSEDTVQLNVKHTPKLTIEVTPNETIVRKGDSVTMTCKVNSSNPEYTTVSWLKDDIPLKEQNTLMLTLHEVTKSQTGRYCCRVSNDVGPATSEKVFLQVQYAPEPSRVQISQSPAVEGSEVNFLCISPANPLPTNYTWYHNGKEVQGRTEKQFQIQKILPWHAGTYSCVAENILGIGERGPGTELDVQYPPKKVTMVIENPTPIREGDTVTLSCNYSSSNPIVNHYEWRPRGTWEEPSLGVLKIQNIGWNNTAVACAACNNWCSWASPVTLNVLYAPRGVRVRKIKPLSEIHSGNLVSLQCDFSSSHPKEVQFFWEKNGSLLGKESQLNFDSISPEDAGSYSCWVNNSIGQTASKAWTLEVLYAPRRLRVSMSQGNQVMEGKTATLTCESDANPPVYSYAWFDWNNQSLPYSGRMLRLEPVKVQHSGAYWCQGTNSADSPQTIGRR

On to `C#CCOCCOCCO[C@]1(C(=O)O)C[C@H](O)[C@@H](NC(=O)CO)[C@H]([C@H](O)[C@H](O)CNC(=O)Cc2ccc(-c3ccc4[nH]ccc4c3)cc2)O1` [Compound 4, (2R,4S,5R,6R)-6-((1R,2R)-3-(2-(4-(1H-indol-5-yl)phenyl)acetamido)-1,2-dihydroxypropyl)-4-hydroxy-5-(2-hydroxyacetamido)-2-(2-(2-(prop-2-yn-1-yloxy)ethoxy)ethoxy)tetrahydro-2H-pyran-2-carboxylic acid], for which the Kd in experiment [1], in experiment [2] and in experiment [3] was under 1000 nM throughout.
On to `C#CCOc1ccc(-c2cn([C@]3(C(=O)O)C[C@H](O)[C@@H](NC(=O)CO)[C@H]([C@H](O)[C@H](O)CNC(=O)Cc4ccc(-c5ccc(O)cc5)cc4)O3)nn2)cc1` [Compound 53, (2R,4S,5R,6R)-6-((1R,2R)-1,2-dihydroxy-3-(2-(4′-hydroxy-[1,1′-biphenyl]-4-yl)acetamido)propyl)-4-hydroxy-5-(2-hydroxyacetamido)-2-(4-(4-(prop-2-yn-1-yloxy)phenyl)-1H-1,2,3-triazol-1-yl)tetrahydro-2H-pyran-2-carboxylic acid], for which the Kd in experiment [1] was under 1000 nM; in experiment [2], 1000 to 10000 nM; in experiment [3] it was 1000 to 10000 nM.
Regarding `C#CCOCCOCCO[C@]1(C(=O)O)C[C@H](O)[C@@H](NC(=O)CO)[C@H]([C@H](O)[C@H](O)CNC(=O)c2cc3c(s2)-c2ccccc2OC3)O1` [Compound 179, (2R,4S,5R,6R)-6-((1R,2R)-1,2-dihydroxy-3-(4H-thieno[3,2-c]chromene-2-carboxamido)propyl)-4-hydroxy-5-(2-hydroxyacetamido)-2-(2-(2-(prop-2-yn-1-yloxy)ethoxy)ethoxy)tetrahydro-2H-pyran-2-carboxylic acid], the Kd in experiment [1] was under 1000 nM; in experiment [2], over 10000 nM; in experiment [3] it was 1000 to 10000 nM.
Take `CC(=O)NCCOCCOCCOCCOCCNc1c(NCCOCCOCCO[C@]2(C(=O)O)C[C@H](O)[C@@H](NC(=O)CO)[C@H]([C@H](O)[C@H](O)CNC(=O)Cc3ccc(-c4ccccc4)cc3)O2)c(=O)c1=O` [Cpd. 242, (2R,4S,5R,6R)-6-((1R,2R)-3-(2-([1,1′-biphenyl]-4-yl)acetamido)-1,2-dihydroxypropyl)-2-(2-(2-(2-((3,4-dioxo-2-((2-oxo-6,9,12,15-tetraoxa-3-azaheptadecan-17-yl)amino)cyclobut-1-en-1-yl)amino)ethoxy)ethoxy)ethoxy)-4-hydroxy-5-(2-hydroxyacetamido)tetrahydro-2H-pyran-2-carboxylic acid]: the Kd in experiment [1], in experiment [2] and in experiment [3] was 1000 to 10000 nM each time.
Regarding `C#CCOCCCCCCO[C@]1(C(=O)O)C[C@H](O)[C@@H](NC(=O)NC2CC2)[C@H]([C@H](O)[C@H](O)CNC(=O)Cc2ccc(Cl)cc2)O1` [Compound 89, (2R,4S,5R,6R)-6-((1R,2R)-3-(2-(4-chlorophenyl)acetamido)-1,2-dihydroxypropyl)-5-(3-cyclopropylureido)-4-hydroxy-2-((6-(prop-2-yn-1-yloxy)hexyl)oxy)tetrahydro-2H-pyran-2-carboxylic acid], the Kd in experiment [1], in experiment [2] and in experiment [3] was 1000 to 10000 nM throughout.
With `C#CCOCCOCCO[C@]1(C(=O)O)C[C@H](O)[C@@H](NC(=O)C(F)F)[C@H]([C@H](O)[C@H](O)CNC(=O)Cc2ccc(-c3ccc(O)cc3)cc2)O1` [Compound 76, (2R,4S,5R,6R)-5-(2,2-difluoroacetamido)-6-((1R,2R)-1,2-dihydroxy-3-(2-(4′-hydroxy-[1,1′-biphenyl]-4-yl)acetamido)propyl)-4-hydroxy-2-(2-(2-(prop-2-yn-1-yloxy)ethoxy)ethoxy)tetrahydro-2H-pyran-2-carboxylic acid], the Kd in experiment [1] was under 1000 nM; in experiment [2], 1000 to 10000 nM; in experiment [3] it was 1000 to 10000 nM.
`C#CCOCCOCCO[C@]1(C(=O)O)C[C@H](O)[C@@H](NC(=O)CO)[C@H]([C@H](O)[C@H](O)CNC(=O)Cc2ccc(O)c(Cl)c2)O1` [Compound 197, (2R,4S,5R,6R)-6-((1R,2R)-3-(2-(3-chloro-4-hydroxyphenyl)acetamido)-1,2-dihydroxypropyl)-4-hydroxy-5-(2-hydroxyacetamido)-2-(2-(2-(prop-2-yn-1-yloxy)ethoxy)ethoxy)tetrahydro-2H-pyran-2-carboxylic acid]: the Kd in experiment [1], in experiment [2] and in experiment [3] was over 10000 nM each time.
As for `C#CCCOc1ccc(CS[C@]2(C(=O)O)C[C@H](O)[C@@H](NC(=O)CO)[C@H]([C@H](O)[C@H](O)CNC(=O)Cc3ccc(-c4ccc(O)cc4)cc3)O2)cc1` [Compound 64, (2S,4S,5R,6R)-2-((4-(but-3-yn-1-yloxy)benzyl)thio)-6-((1R,2R)-1,2-dihydroxy-3-(2-(4′-hydroxy-[1,1′-biphenyl]-4-yl)acetamido)propyl)-4-hydroxy-5-(2-hydroxyacetamido)tetrahydro-2H-pyran-2-carboxylic acid], the Kd in experiment [1], in experiment [2] and in experiment [3] was under 1000 nM in each case.
As to `CC(=O)NCCOCCOCCOCCOCc1cn(CCCCCCO[C@]2(C(=O)O)C[C@H](O)[C@@H](NC(=O)CO)[C@H]([C@H](O)[C@H](O)CNC(=O)Cc3ccc(C(F)F)cc3)O2)nn1` [Compound 252, (2R,4S,5R,6R)-6-((1R,2R)-3-(2-(4-(difluoromethyl)phenyl)acetamido)-1,2-dihydroxypropyl)-4-hydroxy-5-(2-hydroxyacetamido)-2-((6-(4-(15-oxo-2,5,8,11-tetraoxa-14-azahexadecyl)-1H-1,2,3-triazol-1-yl)hexyl)oxy) tetrahydro-2H-pyran-2-carboxylic acid], the Kd is under 1000 nM in experiment [1], 1000 to 10000 nM in experiment [2] and under 1000 nM in experiment [3].
For the compound `CC(=O)NCCOCCOCCOCCOCCC(=O)NCCOCCOCCO[C@]1(C(=O)O)C[C@H](O)[C@@H](NC(=O)CO)[C@H]([C@H](O)[C@H](O)CNC(=O)Cc2ccc(Cl)cc2)O1` [Compound 237, (2R,4S,5R,6R)-6-((1R,2R)-3-(2-(4-chlorophenyl)acetamido)-1,2-dihydroxypropyl)-2-((2,18-dioxo-6,9,12,15,22,25-hexaoxa-3,19-diazaheptacosan-27-yl)oxy)-4-hydroxy-5-(2-hydroxyacetamido) tetrahydro-2H-pyran-2-carboxylic acid], the Kd in experiment [1], in experiment [2] and in experiment [3] was 1000 to 10000 nM in each case.
On to `C#CCCOc1ccc(CO[C@]2(C(=O)O)C[C@H](O)[C@@H](NC(=O)CO)[C@H]([C@H](O)[C@H](O)CNC(=O)Cc3ccc(-c4ccc(O)cc4)cc3)O2)cc1O` [Compound 73, (2R,4S,5R,6R)-2-((4-(but-3-yn-1-yloxy)-3-hydroxybenzyl)oxy)-6-((1R,2R)-1,2-dihydroxy-3-(2-(4′-hydroxy-[1,1′-biphenyl]-4-yl)acetamido)propyl)-4-hydroxy-5-(2-hydroxyacetamido)tetrahydro-2H-pyran-2-carboxylic acid], for which the Kd in experiment [1], in experiment [2] and in experiment [3] was under 1000 nM in each case.
